Assay results from US20230357249A1, “ANDROGEN RECEPTOR PROTEIN DEGRADERS WITH A TRICYCLIC CEREBLON LIGAND” (THE REGENTS OF THE UNIVERSITY OF MICHIGAN, priority 2020, published 2023).

Tested on: AR protein
Assay: AR protein degradation in MDA-MB-453 cells, Western blotting
Format: cell-based
Parameters: key to AR protein degradation MDA-MB-453 10 nM: A: >90% degradation (24 hr treatment); B: >50% degradation but <90% (24 hr treatment); C: >10% degradation but <50% (24 hr treatment); D: No significant degradation (24 hr treatment)
Conditions: 24 hr treatment
Protocol: The appropriate cell line, e.g., prostate cancer LNCaP, Vcap, or 22RV1 cell line, was treated with Compounds of the Disclosure as indicated. The treated cells were lysed with RIPA buffer. The AR level in the cell lysates was examined by western blotting and a specific AR antibody (ab194196, Abcam, Cambridge, MA 02139) with concentration of 1:20,000. GAPDH was used as a loading control.
Bands were quantified with ImageJ software. The relative numbers of each band obtained from normalization with its corresponding GAPDH level were compared with Prism 8 software. The DC50 values were produced from Prism 8, and the DC90 values were calculated with an equation=Bottom + (Top-Bottom)/(1+10^((LogEC50-X)*HillSlope) based on DC50 and Hillslope values.
The amount of AR protein degradation in VCap and MDA-MB-453 cells caused by representative Compounds of the Disclosure at the concentrations indicated is presented in Table 4, FIG. 1, and FIG. 2.

Structure (SMILES)	AR protein degradation MDA-MB-453 10 nM	AR protein degradation MDA-MB-453 100 nM
CC1(C)[C@H](Oc2ccc(C#N)c(Cl)c2)C(C)(C)[C@H]1N1Cc2cc(N3CCN(CC(=O)N4CCc5cc6c(cc5C4)C(=O)N(C4CCC(=O)NC4=O)C6=O)CC3)ccc2C1=O (some centres unmarked) [compound 1]	D	C (>10% degradation but <50% (24 hr treatment))
CC1(C)[C@H](Oc2ccc(C#N)c(Cl)c2)C(C)(C)[C@H]1N1Cc2cc(N3CCN(CC(=O)N4Cc5cc6c(cc5C4)C(=O)N(C4CCC(=O)NC4=O)C6=O)CC3)ccc2C1=O (some centres unmarked) [compound 2]	D	C (>10% degradation but <50% (24 hr treatment))
N#Cc1ccc(O[C@H]2CC[C@H](N3Cc4cc(N5CCN(CC(=O)N6CCc7cc8c(cc7C6)C(=O)N(C6CCC(=O)NC6=O)C8=O)CC5)ccc4C3=O)CC2)cc1Cl (some centres unmarked) [compound 3]	D	C (>10% degradation but <50% (24 hr treatment))
N#Cc1ccc(O[C@H]2CC[C@H](N3Cc4cc(N5CCN(CC(=O)N6Cc7cc8c(cc7C6)C(=O)N(C6CCC(=O)NC6=O)C8=O)CC5)ccc4C3=O)CC2)cc1Cl (some centres unmarked) [compound 4]	B (>50% degradation but <90% (24 hr treatment))	A (>90% degradation (24 hr treatment))
